In patent US12428648B2, “Compositions comprising peptides that block transmission of orthotospoviruses” (priority 2019, dated 2025):
No end group written: not given here.

What was measured:
αvβ3 = αvβ3 (Homo sapiens, UniProt P05106+P06756); details: Hersel et al., 2003; cited from earlier work
α5β1 = α5β1 (Homo sapiens, UniProt P05556+P08648); details: Hersel et al., 2003; cited from earlier work
[1] = Dissolution of the synthesized peptides; assay type: physicochemical; details: molecular biology grade water; 25% acetic acid for A229

Sequence of α5β1 (P08648 42-1049): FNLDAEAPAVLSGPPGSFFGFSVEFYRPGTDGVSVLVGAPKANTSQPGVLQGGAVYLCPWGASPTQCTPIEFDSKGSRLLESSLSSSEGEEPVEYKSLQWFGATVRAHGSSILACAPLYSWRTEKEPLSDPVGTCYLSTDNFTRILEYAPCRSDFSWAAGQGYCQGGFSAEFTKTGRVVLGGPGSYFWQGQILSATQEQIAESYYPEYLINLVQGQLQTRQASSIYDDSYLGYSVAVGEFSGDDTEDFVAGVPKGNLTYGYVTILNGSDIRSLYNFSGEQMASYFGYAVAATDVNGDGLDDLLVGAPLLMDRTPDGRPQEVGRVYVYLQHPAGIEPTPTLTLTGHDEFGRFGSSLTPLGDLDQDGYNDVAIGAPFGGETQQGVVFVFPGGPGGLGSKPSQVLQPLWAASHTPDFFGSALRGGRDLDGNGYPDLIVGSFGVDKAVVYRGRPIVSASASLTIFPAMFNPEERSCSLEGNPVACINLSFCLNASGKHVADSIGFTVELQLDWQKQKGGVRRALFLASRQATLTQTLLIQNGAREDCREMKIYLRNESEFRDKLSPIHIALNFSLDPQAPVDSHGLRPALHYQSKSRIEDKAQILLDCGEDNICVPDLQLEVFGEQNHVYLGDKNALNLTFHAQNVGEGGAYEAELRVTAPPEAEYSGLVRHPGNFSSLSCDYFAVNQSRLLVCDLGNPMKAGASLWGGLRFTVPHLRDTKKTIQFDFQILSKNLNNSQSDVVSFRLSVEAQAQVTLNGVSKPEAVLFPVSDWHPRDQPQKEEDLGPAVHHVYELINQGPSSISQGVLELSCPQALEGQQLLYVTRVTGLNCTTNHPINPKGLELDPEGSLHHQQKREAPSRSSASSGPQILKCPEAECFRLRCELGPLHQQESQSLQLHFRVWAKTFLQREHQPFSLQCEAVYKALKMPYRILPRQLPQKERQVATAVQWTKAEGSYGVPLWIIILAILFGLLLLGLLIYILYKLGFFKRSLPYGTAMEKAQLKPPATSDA
Sequence of α5β1 (P05556 21-798): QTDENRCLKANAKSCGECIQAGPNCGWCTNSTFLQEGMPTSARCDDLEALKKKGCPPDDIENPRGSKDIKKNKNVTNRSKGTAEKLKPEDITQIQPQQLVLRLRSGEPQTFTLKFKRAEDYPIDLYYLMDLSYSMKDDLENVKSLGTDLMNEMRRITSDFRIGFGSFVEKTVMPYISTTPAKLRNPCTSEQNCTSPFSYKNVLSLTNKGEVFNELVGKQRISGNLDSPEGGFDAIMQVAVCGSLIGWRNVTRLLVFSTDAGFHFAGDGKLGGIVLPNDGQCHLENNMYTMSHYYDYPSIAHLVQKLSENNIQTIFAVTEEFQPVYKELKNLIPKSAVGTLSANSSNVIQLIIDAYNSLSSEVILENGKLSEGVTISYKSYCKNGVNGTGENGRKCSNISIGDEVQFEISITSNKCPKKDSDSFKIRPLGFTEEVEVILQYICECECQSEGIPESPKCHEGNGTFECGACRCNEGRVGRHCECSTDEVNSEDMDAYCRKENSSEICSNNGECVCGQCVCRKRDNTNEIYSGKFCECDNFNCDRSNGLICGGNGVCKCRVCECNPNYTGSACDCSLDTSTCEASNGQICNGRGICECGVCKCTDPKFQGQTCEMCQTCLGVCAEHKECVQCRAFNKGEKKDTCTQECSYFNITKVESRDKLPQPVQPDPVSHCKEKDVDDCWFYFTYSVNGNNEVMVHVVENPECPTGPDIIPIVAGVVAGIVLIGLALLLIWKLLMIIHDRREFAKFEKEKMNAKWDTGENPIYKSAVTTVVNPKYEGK
Sequence of αvβ3 (P06756 31-1048): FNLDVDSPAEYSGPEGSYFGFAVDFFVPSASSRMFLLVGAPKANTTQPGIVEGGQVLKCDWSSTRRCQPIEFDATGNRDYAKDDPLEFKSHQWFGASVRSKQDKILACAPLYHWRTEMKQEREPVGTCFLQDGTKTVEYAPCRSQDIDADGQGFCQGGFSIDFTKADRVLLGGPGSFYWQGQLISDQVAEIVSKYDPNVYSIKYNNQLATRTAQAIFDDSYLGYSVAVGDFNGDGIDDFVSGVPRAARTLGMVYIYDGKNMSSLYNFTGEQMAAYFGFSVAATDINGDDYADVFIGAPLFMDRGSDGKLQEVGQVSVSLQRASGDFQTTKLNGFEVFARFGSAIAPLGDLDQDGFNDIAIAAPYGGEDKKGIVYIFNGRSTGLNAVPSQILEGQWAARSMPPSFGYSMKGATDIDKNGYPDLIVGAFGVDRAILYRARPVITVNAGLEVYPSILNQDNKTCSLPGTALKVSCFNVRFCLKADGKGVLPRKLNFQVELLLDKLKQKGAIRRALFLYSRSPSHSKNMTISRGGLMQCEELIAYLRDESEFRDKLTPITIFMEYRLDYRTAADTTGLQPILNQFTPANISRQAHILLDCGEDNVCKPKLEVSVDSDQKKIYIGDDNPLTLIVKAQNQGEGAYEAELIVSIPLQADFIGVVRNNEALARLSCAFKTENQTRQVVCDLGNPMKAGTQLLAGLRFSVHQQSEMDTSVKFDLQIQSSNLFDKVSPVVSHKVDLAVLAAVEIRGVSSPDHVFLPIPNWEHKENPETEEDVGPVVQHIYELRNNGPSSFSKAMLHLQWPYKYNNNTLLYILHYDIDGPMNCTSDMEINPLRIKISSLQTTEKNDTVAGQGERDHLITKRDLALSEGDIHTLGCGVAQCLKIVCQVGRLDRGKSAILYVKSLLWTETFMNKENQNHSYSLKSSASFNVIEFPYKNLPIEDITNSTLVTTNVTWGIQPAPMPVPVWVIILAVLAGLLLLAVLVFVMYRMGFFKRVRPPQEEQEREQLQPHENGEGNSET
Sequence of αvβ3 (P05106 27-788): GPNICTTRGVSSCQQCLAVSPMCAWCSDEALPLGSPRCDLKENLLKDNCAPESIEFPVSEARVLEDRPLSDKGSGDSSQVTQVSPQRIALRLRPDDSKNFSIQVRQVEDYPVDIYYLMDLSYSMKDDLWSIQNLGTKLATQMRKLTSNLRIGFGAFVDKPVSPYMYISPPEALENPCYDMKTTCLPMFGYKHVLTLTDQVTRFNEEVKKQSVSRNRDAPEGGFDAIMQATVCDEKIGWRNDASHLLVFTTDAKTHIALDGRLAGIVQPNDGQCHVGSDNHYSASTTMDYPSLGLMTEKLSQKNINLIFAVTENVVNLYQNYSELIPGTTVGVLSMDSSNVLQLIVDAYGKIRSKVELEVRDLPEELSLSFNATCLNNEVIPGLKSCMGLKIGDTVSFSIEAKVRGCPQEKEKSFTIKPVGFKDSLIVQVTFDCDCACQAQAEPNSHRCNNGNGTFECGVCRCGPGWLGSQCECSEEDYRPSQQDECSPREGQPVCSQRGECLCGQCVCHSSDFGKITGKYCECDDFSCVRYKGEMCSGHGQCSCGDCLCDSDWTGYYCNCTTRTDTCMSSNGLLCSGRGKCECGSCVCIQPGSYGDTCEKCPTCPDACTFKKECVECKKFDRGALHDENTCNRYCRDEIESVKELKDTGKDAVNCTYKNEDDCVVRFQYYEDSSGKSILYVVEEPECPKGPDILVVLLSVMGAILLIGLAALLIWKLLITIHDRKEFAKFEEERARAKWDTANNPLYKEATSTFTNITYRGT

Substance	solubility of the peptide, in words [1]	other results
GPenGRGDSPCA	–	integrin selectivity, in words (αvβ3): selective for αvβ3
GRGDSP	–	integrin binding preference, in words (α5β1): bind preferentially to α5β1
NASIAAAHEVSQE [AAA]	dissolved in molecular biology grade water	–
NASIAADHEVSQE [AAD]	insoluble in H2O	–
NASIAGAHEVSQE [AGA]	dissolved in molecular biology grade water	–
NASIAGDHEVSQE [AGD]	dissolved in molecular biology grade water	–
NASIRAAHEVSQE [RAA]	dissolved in molecular biology grade water	–
NASIRADHEVSQE [RAD]	insoluble in H2O	–
NASIRGAHEVSQE [RGA]	dissolved in molecular biology grade water	–
NASIRGDHEVSQE [RGD]	dissolved in molecular biology grade water	–
RGDSPASSKP	–	integrin binding preference, in words (α5β1): bind preferentially to α5β1
RLTGECAITKVSLTN [A229]	did not dissolve in either water or 25% acetic acid	–
RLTGECNITKVSLTN [N229]	dissolved in molecular biology grade water	–
